Data published in ChEMBL document CHEMBL1131781, “Design and synthesis of diaminopyrrolidinone inhibitors of human osteoclast cathepsin K” (Bioorg Med Chem Lett, 1999).

target: T1, Cathepsin K (Homo sapiens, UniProt P43235); assay: Compound was tested for its inhibitory activity against human osteoclast cathepsin K
T1 sequence (P43235 whole entry): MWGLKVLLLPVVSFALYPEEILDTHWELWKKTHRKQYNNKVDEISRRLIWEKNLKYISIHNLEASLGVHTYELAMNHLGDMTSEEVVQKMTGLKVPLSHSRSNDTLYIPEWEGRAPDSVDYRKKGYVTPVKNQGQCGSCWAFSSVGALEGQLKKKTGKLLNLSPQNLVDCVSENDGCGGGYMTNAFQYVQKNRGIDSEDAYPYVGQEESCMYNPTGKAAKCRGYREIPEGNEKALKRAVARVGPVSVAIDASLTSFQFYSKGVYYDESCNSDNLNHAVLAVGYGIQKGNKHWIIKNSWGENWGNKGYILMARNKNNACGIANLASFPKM

Going from `CC(C)C[C@H](NC(=O)OCc1ccccc1)c1nc(C(=O)NN2CC[C@@](CC(C)C)(NC(=O)OCc3ccccc3)C2=O)cs1` to `CC(C)C[C@H](NC(=O)OCc1ccccc1)c1nc(C(=O)NN2CC[C@@H](NC(=O)OCc3ccccc3)C2=O)cs1`, the Ki rises from 33 nM to 330 nM (10-fold).

In the case of `CC(C)C[C@H](NC(=O)OCc1ccccc1)C(=O)NNC(=O)c1csc([C@H](CC(C)C)NC(=O)OCc2ccccc2)n1`, the Ki is reported as 10 nM.
